According to patent EP0774249A2, “Topical composition containing specific flavanones” (UNILEVER PLC, priority 1995, dated 1997):
Entries after “also recorded” stand apart in the source; their conditions may differ. Read-outs that look alike come from different tables or passages of the source. Each block holds one compound with its values, some of them ahead of it.

Tested on: Human Epidermal Keratinocytes
Experiment: Transglutaminase (TG-1) assay, ELISA on cultured keratinocytes
Type: cell-based
Details: for TG-1 production DAY 2 / TG-1 production DAY 3 / TG-1 production DAY 1: absorbance OD 490nm; for TG-1 production DAY 2: control 0.134 (Exp. 1), 0.152 (Exp. 2), 0.174 (Exp. 3); for TG-1 production DAY 3: control 0.143 (Exp. 1), 0.200 (Exp. 2), 0.218 (Exp. 3); for TG-1 production DAY 1: control 0.154 (Exp. 1), 0.179 (Exp. 2), 0.181 (Exp. 3); for Effects on Differentiation (TG-1): after 72 hour incubation; for stimulation of differentiation (TG-1 production) against the control: 10, 25, 50 µg/mL, days 1 to 3 (Table 2); for activity at 10 µg/mL / activity at 25 µg/mL / activity at 50 µg/mL: Homo sapiens, Keratinocyte; for morphology of the cells / cytotoxic effect on keratinocytes: observation of the cultures; for TG-1 Expressed Day 1 / TG-1 Expressed Day 2: concentrations not given; for TG-1 expressed on Day 1: single flavanone
[1] = 24 h, 10 µg/mL, read-out: DAY 1 (% over control) (converted)
[2] = 24 h, 25 µg/mL, read-out: DAY 1 (% over control) (converted)
[3] = 24 h, 50 µg/mL, read-out: DAY 1 (% over control) (converted)
[4] = 48 h, 10 µg/mL, read-out: DAY 2 (% over control) (converted)
[5] = 48 h, 25 µg/mL, read-out: DAY 2 (% over control) (converted)
[6] = 48 h, 50 µg/mL, read-out: DAY 2 (% over control) (converted)
[7] = 72 h, 10 µg/mL, read-out: DAY 3 (% over control) (converted)
[8] = 72 h, 25 µg/mL, read-out: DAY 3 (% over control) (converted)
[9] = 72 h, 50 µg/mL, read-out: DAY 3 (% over control) (converted)
[10] = Experiment 2, control 0.16 ± 0.01
[11] = Experiment 2, control 0.20 ± 0.01
[12] = 5μg/mL, control 0.17 (Exp. 1), 0.19 (Exp. 3)
[13] = 10μg/mL, control 0.17 (Exp. 1), 0.19 (Exp. 3)
[14] = Experiment 1, control 0.17 ± 0.01
[15] = Experiment 1, control 0.21 ± 0.02

- Effects on Differentiation (TG-1) (5 and 15 µg/ml): Increase TG-1
- Effects on Differentiation (TG-1) (5 and 15 µg/ml, listed as eriodictyol): stimulated TG-1 production
Structure (SMILES): O=C1CC(c2ccc(O)c(O)c2)Oc2cc(O)cc(O)c21 (stereo not shown) [Eriodictyol]
- TG-1 production DAY 2 (10 µg/mL): 0.194 ± 0.01
- TG-1 production DAY 3 (10 µg/mL): 0.264 ± 0.03
- TG-1 production DAY 1 (10 µg/mL): 0.178 ± 0.02
- TG-1 production DAY 2 (25 µg/mL): 0.222 ± 0.05
- TG-1 production DAY 3 (25 µg/mL): 0.314 ± 0.07
- TG-1 production DAY 1 (25 µg/mL): 0.211 ± 0.04
- TG-1 production DAY 2 (50 µg/mL): 0.174 ± 0.02
- TG-1 production DAY 3 (50 µg/mL): 0.193 ± 0.05
- TG-1 production DAY 1 (50 µg/mL): 0.186 ± 0.02
- stimulation of differentiation (TG-1 production) against the control: stimulated differentiation to the same extent or higher than the control
- activity at 10 µg/mL [1]: 99%
- activity at 25 µg/mL [2]: 118%
- activity at 50 µg/mL [3]: 104%
- activity at 10 µg/mL [4]: 128%
- activity at 25 µg/mL [5]: 146%
- activity at 50 µg/mL [6]: 115%
- activity at 10 µg/mL [7]: 132%
- activity at 25 µg/mL [8]: 157%
- activity at 50 µg/mL [9]: 97%

Structure (SMILES): CC1OC(OC2C(Oc3cc(O)c4c(c3)OC(c3ccc(O)cc3)CC4=O)OC(CO)C(O)C2O)C(O)C(O)C1O (stereo not shown) [Naringin, reference compound]
- Effects on Differentiation (TG-1) (5 and 15 µg/ml): No effect
- Effects on Differentiation (TG-1) (5 and 15 µg/ml, listed as naringin): not an effective material for promoting the differentiation of keratinocytes

Structure (SMILES): COc1ccc([C@@H]2CC(=O)c3c(O)cc(O[C@@H]4O[C@H](CO[C@@H]5O[C@@H](C)[C@H](O)[C@@H](O)[C@H]5O)[C@@H](O)[C@H](O)[C@H]4O)cc3O2)cc1O [Hesperidin, reference compound]
- Effects on Differentiation (TG-1) (5 and 15 µg/ml): No effect

Structure (SMILES): O=c1c(-c2ccc(O)cc2)coc2cc(O)ccc12 [Daidzein, reference compound]
- stimulation or inhibition of differentiation processes, time course study (5 and 15 µg/ml): no effects
- Effects on Differentiation (TG-1) (5 and 15 µg/ml): No effect
- morphology of the cells / cytotoxic effect on keratinocytes (5 and 15 µg/ml): no morphological changes

- Effects on Differentiation (TG-1) (5 and 15 µg/ml): Increase TG-1
- Effects on Differentiation (TG-1) (5 and 15 µg/ml, listed as taxifolin): stimulated TG-1 production
Structure (SMILES): O=C1c2c(O)cc(O)cc2O[C@H](c2ccc(O)c(O)c2)[C@H]1O [Taxifolin]
- TG-1 production DAY 2 (10 µg/mL): 0.204 ± 0.04
- TG-1 production DAY 3 (10 µg/mL): 0.231 ± 0.03
- TG-1 production DAY 1 (10 µg/mL): 0.153 ± 0.02
- TG-1 production DAY 2 (25 µg/mL): 0.212 ± 0.03
- TG-1 production DAY 3 (25 µg/mL): 0.226 ± 0.02
- TG-1 production DAY 1 (25 µg/mL): 0.175 ± 0.04
- TG-1 production DAY 2 (50 µg/mL): 0.159 ± 0.01
- TG-1 production DAY 3 (50 µg/mL): 0.199 ± 0.04
- TG-1 production DAY 1 (50 µg/mL): 0.150 ± 0.02
- stimulation of differentiation (TG-1 production) against the control: stimulated differentiation to the same extent or higher than the control
- activity at 10 µg/mL [1]: 85%
- activity at 25 µg/mL [2]: 97%
- activity at 50 µg/mL [3]: 84%
- activity at 10 µg/mL [4]: 117%
- activity at 25 µg/mL [5]: 122%
- activity at 50 µg/mL [6]: 92%
- activity at 10 µg/mL [7]: 106%
- activity at 25 µg/mL [8]: 104%
- activity at 50 µg/mL [9]: 92%

Structure (SMILES): O=c1ccc2ccccc2o1 [Coumarin, reference compound]
- Effects on Differentiation (TG-1) (5 and 15 µg/ml): No effect

Structure (SMILES): CCCCCCCCCCCCCCCCN(CC(O)CO)C(C)=O (stereo not shown) [C2-Neoceramide (Formula F)]
- TG-1 Expressed Day 1 [10]: 0.16 ± 0.01
- TG-1 Expressed Day 2 [11]: 0.21 ± 0.02

- Effects on Differentiation (TG-1) (5 and 15 µg/ml): Increase TG-1
Structure (SMILES): COc1ccc(C2CC(=O)c3c(O)cc(O)cc3O2)cc1O (stereo not shown) [Hesperetin]
- TG-1 expressed on Day 1 [12]: 0.19 ± 0.01 ^1
- TG-1 expressed on Day 1 [13]: 0.19 ± 0.02 ^1
- TG-1 production DAY 2 (10 µg/mL): 0.155 ± 0.01
- TG-1 production DAY 3 (10 µg/mL): 0.190 ± 0.01
- TG-1 production DAY 1 (10 µg/mL): 0.142 ± 0.01
- TG-1 expressed on Day 1 (20μg/mL, control 0.19 (Exp. 2)): 0.20 ± 0.02
- TG-1 production DAY 2 (25 µg/mL): 0.167 ± 0.02
- TG-1 production DAY 3 (25 µg/mL): 0.182 ± 0.01
- TG-1 production DAY 1 (25 µg/mL): 0.148 ± 0.02
- TG-1 expressed on Day 1 (40μg/mL, control 0.19 (Exp. 2)): 0.20 ± 0.01
- TG-1 production DAY 2 (50 µg/mL): 0.213 ± 0.04
- TG-1 production DAY 3 (50 µg/mL): 0.196 ± 0.01
- TG-1 production DAY 1 (50 µg/mL): 0.154 ± 0.04
- Effects on Differentiation (TG-1) (5 and 15 µg/ml, listed as hesperetin): effective keratinocyte pro-differentiating agents; also recorded: stimulated TG-1 production
- stimulation of differentiation (TG-1 production) against the control: stimulated differentiation to the same extent or higher than the control
- TG-1 Expressed Day 1 [14]: 0.14 ± 0.01^1
- TG-1 Expressed Day 2 [15]: 0.22 ± 0.02
- TG-1 Expressed Day 1 [10]: 0.15 ± 0.01^2
- TG-1 Expressed Day 2 [11]: 0.21 ± 0.02
- activity at 10 µg/mL [1]: 92%
- activity at 25 µg/mL [2]: 96%
- activity at 50 µg/mL [3]: 100%
- activity at 10 µg/mL [4]: 116%
- activity at 25 µg/mL [5]: 125%
- activity at 50 µg/mL [6]: 159%
- activity at 10 µg/mL [7]: 133%
- activity at 25 µg/mL [8]: 127%
- activity at 50 µg/mL [9]: 137%

- Effects on Differentiation (TG-1) (5 and 15 µg/ml): Increase TG-1
Structure (SMILES): O=C1C[C@@H](c2ccc(O)cc2)Oc2cc(O)cc(O)c21 [Naringenin]
- TG-1 expressed on Day 1 [12]: 0.19 ± 0.02
- TG-1 expressed on Day 1 [13]: 0.21 ± 0.01 ^5
- TG-1 production DAY 2 (10 µg/mL): 0.149 ± 0.01
- TG-1 production DAY 3 (10 µg/mL): 0.159 ± 0.01
- TG-1 production DAY 1 (10 µg/mL): 0.147 ± 0.01
- TG-1 production DAY 2 (25 µg/mL): 0.200 ± 0.03
- TG-1 production DAY 3 (25 µg/mL): 0.171 ± 0.02
- TG-1 production DAY 1 (25 µg/mL): 0.207 ± 0.02
- TG-1 production DAY 2 (50 µg/mL): 0.186 ± 0.01
- TG-1 production DAY 3 (50 µg/mL): 0.169 ± 0.01
- TG-1 production DAY 1 (50 µg/mL): 0.156 ± 0.01
- Effects on Differentiation (TG-1) (5 and 15 µg/ml, listed as naringenin): effective keratinocyte pro-differentiating agents; also recorded: stimulated TG-1 production
- stimulation of differentiation (TG-1 production) against the control: stimulated differentiation to the same extent or higher than the control
- activity at 10 µg/mL [1]: 99%
- activity at 25 µg/mL [2]: 134%
- activity at 50 µg/mL [3]: 101%
- activity at 10 µg/mL [4]: 111%
- activity at 25 µg/mL [5]: 149%
- activity at 50 µg/mL [6]: 139%
- activity at 10 µg/mL [7]: 111%
- activity at 25 µg/mL [8]: 120%
- activity at 50 µg/mL [9]: 118%

Structure (SMILES): O=c1cc(-c2ccccc2)oc2cc(O)cc(O)c12 [Chrysin, reference compound]
- Effects on Differentiation (TG-1) (5 and 15 µg/ml): No effect

Structure (SMILES): O=c1c(O)c(-c2ccc(O)c(O)c2)oc2cc(O)ccc12 [Fisetin, reference compound]
- Effects on Differentiation (TG-1) (5 and 15 µg/ml): No effect

Structure (SMILES): Oc1cc(O)c2c(c1)O[C@H](c1ccc(O)c(O)c1)[C@H](O)C2 [Epicatechin, reference compound]
- Effects on Differentiation (TG-1) (5 and 15 µg/ml): No effect

Structure (SMILES): COc1ccc(-c2coc3cc(O)ccc3c2=O)cc1 [Formonoetin, reference compound]
- Effects on Differentiation (TG-1) (5 and 15 µg/ml): No effect

Structure (SMILES): CCCCCCCCCCCCC/C=C/C(O)C(CO)NC(C)=O (stereo not shown) [C2-Ceramide (Formula A)]
- TG-1 Expressed Day 1 [14]: 0.15 ± 0.01^1
- TG-1 Expressed Day 2 [15]: 0.23 ± 0.02^3

Structure (SMILES): O=c1cc(-c2ccc(O)cc2)oc2cc(O)cc(O)c12 [Apigenin, reference compound]
- Effects on Differentiation (TG-1) (5 and 15 µg/ml): No effect
- morphology of the cells / cytotoxic effect on keratinocytes (5 and 15 µg/ml): disrupted the cell membranes

Structure (SMILES): O=c1c(O)c(-c2ccc(O)c(O)c2)oc2cc(O)cc(O)c12 [Quercetin, reference compound]
- Effects on Differentiation (TG-1) (5 and 15 µg/ml): No effect
